# Biological target: Carbonic anhydrase 2 (Homo sapiens, UniProt P00918)
# Assay: Fluorescence-Based CA II Binding Assay
# Settings: pH 7; 25 °C
# Protocol: The assay was performed according to a previously reported protocol.[Banerjee et al., Biochemistry, 44:3673-3682] DNSA stock solution was prepared at 1 mm in DMSO/water (1:1). CA II (1 mm) was added to the test probe (over a 0.1-100 mm concentration range) in HEPES buffer [HEPES (25 mm) with acetonitrile (10 %), pH 7.0] and mixed well. DNSA (0.1 mm) was added, and the resulting solution was incubated at RT for 10 min and then transferred into a black-wall 96-well plate (final volume […]). The fluorescence was measured with a Spectra Max 250 plate reader (Molecular Devices, Sunnyvale, CA, USA) at an excitation of 285 nm and emission of 465 nm at 25 °C.
row,Compound,IC50 [µM]
1,"C#CCOCCOCCOCCOCCNC(=O)c1ccc(S(N)(=O)=O)cc1 [N-(3,6,9,12-Tetraoxapentadec-14-ynyl)-4-sulfamoylbenzamide (13)]",0.288
2,"C#CCOCCOCCOCCOCCOCCC(=O)Nc1ccc(C(=O)c2ccc(NC(=O)CCNC(=O)c3ccccc3)cc2)cc1 [N-(4-{4-[3-(Phenylformamido)propanamido]benzoyl}phenyl)-4,7,10,13,16-pentaoxanonadec-18-ynamide (12)]",> 5000
3,"C#CCOCCOCCOCCOCCOCCC(=O)Nc1ccc(C(=O)c2ccc(NC(=O)CCNC(=O)c3ccc(S(N)(=O)=O)cc3)cc2)cc1 [N-[4-(4-{3-[(4-Sulfamoylphenyl)formamido]propanamido}benzoyl)phenyl]-4,7,10,13,16-pentaoxanonadec-18-ynamide (1)]",0.216
4,"C#CCOCCOCCOCCOCCOCCC(=O)N[C@@H](Cc1cn(-c2ccc(C(=O)c3ccccc3)cc2)nn1)C(=O)NCCc1ccc(S(N)(=O)=O)cc1 [N-[(1S)-2-[1-(4-Benzoylphenyl)-1,2,3-triazol-4-yl]-1-{[2-(4-sulfamoylphenyl)ethyl]carbamoyl}ethyl]-4,7,10,13,16-pentaoxanonadec-18-ynamide (7)]",0.604
5,"CCCOCCOCCOC#COCCOCCC(=O)N[C@@H](Cc1cn(-c2ccc(C(=O)c3ccccc3)cc2)nn1)C(=O)Nc1ccccc1 [N-[(1S)-2-[1-(4-Benzoylphenyl)-1H-1,2,3-triazol-4-yl]-1-(phenylcarbamoyl)ethyl]-4,7,10,13,16-pentaoxanonadec-8-ynamide (15)]",> 5000
6,"C#CCOCCOCCOCCOCCOCCC(=O)N[C@@H](Cc1cn(-c2ccc(C(=O)c3ccccc3)cc2)nn1)C(=O)Nc1ccc(S(N)(=O)=O)cc1 [N-[(1S)-2-[1-(4-Benzoylphenyl)-1H-1,2,3-triazol-4-yl]-1-[(4-sulfamoylphenyl)carbamoyl]ethyl]-4,7,10,13,16-pentaoxanonadec-18-ynamide (9)]",1.55
7,"C#CCOCCOCCOCCOCCOCCC(=O)N[C@@H](Cc1cn(-c2ccc(C(=O)c3ccccc3)cc2)nn1)C(=O)NCc1ccc(S(N)(=O)=O)cc1 [N-[(1S)-2-[1-(4-Benzoylphenyl)-1H-1,2,3-triazol-4-yl]-1-{[(4-sulfamoylphenyl)methyl]carbamoyl}ethyl]-4,7,10,13,16-pentaoxanonadec-18-ynamide (8)]",3.1
8,"C#CCOCCOCCOCCOCCOCCC(=O)Nc1ccc(C(=O)c2ccc(NC(=O)CCCC(=O)Nc3cccc(S(N)(=O)=O)c3)cc2)cc1 [N-{4-[4-(4,7,10,13,16-Pentaoxanonadec-18-ynamido)benzoyl]-phenyl}-N’-(3-sulfamoylphenyl)pentanediamide (5)]",0.914
9,"C#CCOCCOCCOCCOCCOCCC(=O)Nc1ccc(C(=O)c2ccc(NC(=O)CCCC(=O)Nc3ccc(S(N)(=O)=O)cc3)cc2)cc1 [N-{4-[4-(4,7,10,13,16-Pentaoxanonadec-18-ynamido)benzoyl]-phenyl}-N’-(4-sulfamoylphenyl)pentanediamide (4)]",0.36

# Further lines, results first:
row,IC50 [µM],Compound
1,0.502,"C#CCOCCOCCOCCOCCOCCC(=O)Nc1ccc(C(=O)c2ccc(NC(=O)CCCC(=O)NCCc3ccc(S(N)(=O)=O)cc3)cc2)cc1 [N-{4-[4-(4,7,10,13,16-Pentaoxanonadec-18-ynamido)benzoyl]-phenyl}-N’-[2-(4-sulfamoylphenyl)ethyl]pentanediamide (2)]"
2,1.22,"C#CCOCCOCCOCCOCCOCCC(=O)Nc1ccc(C(=O)c2ccc(NC(=O)CCCC(=O)NCc3ccc(S(N)(=O)=O)cc3)cc2)cc1 [N-{4-[4-(4,7,10,13,16-Pentaoxanonadec-18-ynamido)benzoyl]-phenyl}-N’-[(4-sulfamoylphenyl)methyl]pentanediamide (3)]"
3,0.8,"C#CCOCCOCCOCCOCCOCCC(=O)Nc1ccc(C(=O)c2ccc(NC(=O)c3ccc(S(N)(=O)=O)cc3)cc2)cc1 [N-{4-[4-(4-Sulfamoylbenzamido)benzoyl]phenyl}-4,7,10,13,16-pentaoxanonadec-18-ynamide (6)]"
4,2.03,"C#CCOCCOCCOCCOCCOCCC(=O)N[C@@H](Cc1cn(-c2ccc(C(=O)c3ccccc3)cc2)nn1)C(=O)Nc1cccc(S(N)(=O)=O)c1 [N-{(1S)-2-[1-(4-Benzoylphenyl)-1H-1,2,3-triazol-4-yl]-1-[(3-sulfamoylphenyl)carbamoyl]ethyl}-4,7,10,13,16-pentaoxanonadec-18-ynamide (10)]"
5,0.139,"C#CCOCCOCCOCCOCCOCCC(=O)N[C@@H](Cc1cn(-c2ccc(C(=O)c3ccccc3)cc2)nn1)C(=O)Nc1nnc(S(N)(=O)=O)s1 [N-{(1S)-2-[1-(4-Benzoylphenyl)-1H-1,2,3-triazol-4-yl]-1-[(5-sulfamoyl-1,3,4-thiadiazol-2-yl)carbamoyl]ethyl}-4,7,10,13,16-pentaoxanonadec-18-ynamide (11)]"

# From BindingDB's records for doi:10.1002/cbic.201600598 (Griffith University, 2017)
